Biological target: T1, human PrCP (Homo sapiens, UniProt P42785)
T1 construct: made in house
T1 sequence (P42785 46-496): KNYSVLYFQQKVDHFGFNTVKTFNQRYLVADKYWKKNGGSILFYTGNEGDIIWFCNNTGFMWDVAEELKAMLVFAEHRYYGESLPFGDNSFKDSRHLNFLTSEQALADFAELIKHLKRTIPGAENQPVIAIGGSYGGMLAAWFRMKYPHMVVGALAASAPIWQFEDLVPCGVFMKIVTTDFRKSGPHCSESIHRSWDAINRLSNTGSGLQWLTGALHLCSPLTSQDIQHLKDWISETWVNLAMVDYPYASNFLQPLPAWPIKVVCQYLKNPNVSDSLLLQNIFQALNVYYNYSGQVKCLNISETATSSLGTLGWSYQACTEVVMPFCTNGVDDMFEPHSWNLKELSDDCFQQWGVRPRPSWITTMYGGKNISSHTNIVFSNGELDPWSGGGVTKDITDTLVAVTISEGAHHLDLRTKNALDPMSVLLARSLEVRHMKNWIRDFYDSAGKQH
Assay: Prolylcarboxypeptidase (PRCP) enzyme activity assay, fluorescence intensity kinetic assay, human enzyme
Assay type: biochemical
Conditions: recombinant human PrCP, 15 uM substrate, pH 5.5, 37° C.
Method: The potency of compounds of formula I against PrCP was determined by a fluorescence intensity kinetic assay measuring the IC50 values of PrCP inhibitor test compounds. […] The assay was run on a Perkin Elmer Envision 2103 plate reader using a 320 nm excitation filter and a 405 emission filter. The assay was performed using a Hamilton Star liquid handling workstation. The assay employed the internally quenched fluorescent substrate (1S)-1-carboxy-5-[(2,4-dinitrophenyl)amino]pentyl N-[(7-methoxy-2-oxo-2H-chromen-4-yl)acetyl]-L-alanyl-L-prolinate prepared in house.
The assay was run in a 384-well microtiter plate at 37° C. with a total volume of 50 uL. Final assay concentrations were 0.13 nM human PrCP (CHO) or 0.09 nM mouse PrCP (CHO) enzyme, 15 uM substrate and varying concentrations of inhibitor in buffer containing 10 mM NaOAc, 100 mM NaCl and 19.5 ug/mL BSA at pH 5.5. The assay also contained 2% DMSO used to solubilize the substrate and inhibitor. Inhibitors were prepared in 100% DMSO and serial diluted (in 100% DMSO) to generate 11 point titration curves. Either 39 uL of human or mouse PrCP enzyme was added to the wells of the assay plate, followed by a 1 uL addition of the serially diluted inhibitor and mixed three times using a 30 uL mix volume. The reaction was initiated by the addition of 10 uL substrate and mixed three times using a 30 uL mix volume. The reactions were monitored continuously over 25 min at 37° C. to obtain initial velocities. […] values were calculated by comparing the resulting rates of reaction of the inhibited and control initial velocities.
The enzymes were diluted in a mixture of 10 mM NaOAc (pH 5.5)/100 mM NaCl buffer containing 25 ug/mL bovine serum albumin that had been warmed to 37° C. in a water bath. The PrCP inhibitor test compounds were plated in 100% DMSO with a highest concentration of 500 uM. There were 12 dilution points for each compound tested including a blank with DMSO only. The test compounds from the source titration plate were transferred into the assay reaction plate at a 1:50 dilution using the Hamilton Star workstation and mixed, resulting in a final concentration for the test compounds in the range of 10,000 to 0.066 nM. Likewise, two control compounds were similarly titrated and included in each assay, with final starting concentrations starting at 10,000 nM and 200 nM, respectively. The reaction was initiated by the addition of 75 uM of the (1S)-1-carboxy-5-[(2,4-dinitrophenyl)amino]pentyl N-[(7-methoxy-2-oxo-2H-chromen-4-yl)acetyl]-L-alanyl-L-prolinate substrate, which was diluted in a mixture of 10 mM NaOAc (pH 5.5)/100 mM NaCl that had been warmed to 37° C. in a water bath, dispensed using the Hamilton Star workstation and mixed. The substrate was solubilized in 100% DMSO prior to dilution into the assay. The final assay concentrations in the 50 uL reactions were 15 uM of (1S)-1-carboxy-5-[(2,4-dinitrophenyl)amino]pentyl N-[(7-methoxy-2-oxo-2H-chromen-4-yl)acetyl]-L-alanyl-L-prolinate substrate, 0.13 nM Human PrCP (CHO) or 0.09 nM Mouse PrCP (CHO), and 2% DMSO.

With `Fc1ccc(-c2cc([C@H]3CC[C@H](c4ccccc4)NC3)n(-c3ncccn3)n2)cc1` (mixture of isomers) [Example 4] as the compound, how does the IC50 read?
The IC50 was 4.1 nM.

Which IC50 does the source give for `COC(=O)N1C[C@@H](c2cc(-c3ccc(Cl)cc3)nn2-c2ncccn2)CC[C@@H]1c1ccccc1` (mixture of isomers) [Example 13] here?
The IC50 was 1.3 nM.

Which IC50 does the source give for `CNC(=O)N1C[C@@H](c2cc(-c3ccc(F)cc3)nn2-c2ncccn2)CC[C@@H]1c1ccccc1` (mixture of isomers) [Example 95] here?
Its IC50 is 10 nM.

For `CC(C)(C)OC(=O)N1C[C@H](c2cc(-c3ccc(F)cc3)nn2-c2ncccn2)CC[C@@H]1CCc1ccccc1` (racemic) [Example 5, tert-Butyl 5-[3-(4-fluorophenyl)-1-(pyrimidin-2-yl)-1H-pyrazol-5-yl]-2-(2-phenylethyl)piperidine-1-carboxylate], which IC50 is on record?
Its IC50 is 8 nM.

Which IC50 does the source give for `Fc1ccc(-c2cc([C@@H]3CC[C@H](CCc4ccccc4)NC3)n(-c3ncccn3)n2)cc1` (racemic) [Example 6, 2-{3-(4-Fluorophenyl)-5-[6-(2-phenylethyl)piperidin-3-yl]-1H-pyrazol-1-yl}pyrimidine] here?
Its IC50 is 2.1 nM.

For `Clc1ccc(-c2cc(C3CNC(CCc4ccccc4)CO3)n(-c3ncccn3)n2)cc1` (single isomer, unassigned) [Example 8, 2-[3-(4-Chlorophenyl)-1-(pyrimidin-2-yl)-1H-pyrazol-5-yl]-5-(2-phenylethyl)morpholine], which IC50 is on record?
Its IC50 is 12 nM.

Which IC50 does the source give for `O=C(Cc1cccc2ccccc12)N1CCCC(c2cc(-c3ccc(F)cc3)nn2-c2ncccn2)C1` (stereo not shown) [Example 17] here?
The IC50 was 1.2 nM.

With `O=C(Cc1ccccc1C(F)(F)F)N1CCCC(c2cc(-c3ccc(F)cc3)nn2-c2ncccn2)C1` (stereo not shown) [Example 20] as the compound, how does the IC50 read?
The IC50 was 0.65 nM.

For `O=C(CC1CCCCC1)N1CCCC(c2cc(-c3ccc(F)cc3)nn2-c2ncccn2)C1` (stereo not shown) [Example 36], which IC50 is on record?
The IC50 was 30 nM.

Which IC50 does the source give for `O=C(NCCc1ccc(F)cc1)N1CCCC(c2cc(-c3ccc(F)cc3)nn2-c2ncccn2)C1` (stereo not shown) [Example 82] here?
Its IC50 is 27 nM.

Which IC50 does the source give for `O=S(=O)(CCC(F)(F)F)N1CCCC(c2cc(-c3ccc(F)cc3)nn2-c2ncccn2)C1` (stereo not shown) [Example 109] here?
Its IC50 is 4.5 nM.

System: rats
Assay: not given
Conditions: intracerebroventricular; cited from earlier work

With t-butyl carbamate-prolyl prolinal [BPP] as the compound, how does the overnight food intake read?
Its overnight food intake is “suppression of overnight food intake”.

System: obese, leptin deficient mice
Assay: not given
Conditions: systemic administration; cited from earlier work

With t-butyl carbamate-prolyl prolinal [BPP] as the compound, how does the overnight food intake read?
The overnight food intake was “suppression of overnight food intake”.
